Source: patent US10537609B2, “MUC1 decoy peptides for treatment and prevention of bacterial infections” (priority 2014, dated 2020)

Assays:
[1] = system: P. aeruginosa (Pa) adhesion to A549 cells; experiment: Bacterial adhesion assay: Pa preincubated with test material, then adhesion to A549 cell monolayers; details: for blocking of Pa adhesion to ECs by free monosaccharides: Pa preincubated 30 min with 5, 10 or 25 mM, separately or in combination (FIG. 10); for reduction of Pa adhesion: Pa preincubated 30 min with shed MUC1-ED preparation, adhesion to fresh A549 monolayers, compared with respective controls (FIG. 11)
[2] = system: MUC1-NEU1 association; details: A549 cells preincubated 30 min with 5.0 μM, then 10 ng/ml Pa flagellin 30 min
[3] = system: Pseudomonas aeruginosa lung infection; experiment: Mouse survival following Pseudomonas aeruginosa lung infection; assay type: in vivo, BALB/c mice; details: Pa intranasally at LD90 (2.0×10^7 CFU/mouse); MUC1-ED 2.5 μg/mouse, cefepime 1.0 μg/mouse; n=7/group
Procedure: FIG. 14. Effect of E. coli MUC1-ED With or Without Cefepime on Mouse Survival Following Pseudomonas aeruginosa Lung Infection. Pseudomonas aeruginosa was administered intranasally to BALB/c mice at an LD90 (2.0×10^7 CFU/mouse) with PBS control or E. coli-expressed MUC1-ED (2.5 μg/mouse). Simultaneously, PBS or cefepime (1.0 μg/mouse) was administered intraperitoneally, and mouse survival was measured daily (n=7/group).
P. aeruginosa was administered intranasally to groups of seven BALB/c mice at an LD90 (2.0×10^7 CFU/mouse). The control group (group #1) received PBS intraperitoneally as therapy; group #2 received MUC1-ED (2.5 μg/mouse) intraperitoneally; group #3 received cefepime (1.0 μg/mouse) intraperitoneally; group #4 received MUC1-ED (2.5 μg/mouse) and cefepime (1.0 μg/mouse) simultaneously, intraperitoneally. The MUC1-ED was E. coli-expressed deglycosylated peptide having the amino acid sequence set forth in SEQ ID NO:2.

[4] = system: Pa lung infection; experiment: Mouse model of Pa lung infection, Pa CFU in BALF and lungs; details: Pa preincubated with MUC1-ED; 10^5 CFU/mouse i.t.; 48 h and 72 h post-challenge; vs PBS control

Row | Molecule | blocking of Pa adhesion to ECs by free monosaccharides [1] | reduction of Pa adhesion [1] | other results
1 | CC(=O)N[C@H]1C(O)O[C@H](CO)[C@H](O)[C@@H]1O (some centres unmarked) [N-acetylgalactosamine, reference compound] | None of these monosaccharides, either separately or in combination, blocked Pa adhesion to ECs |  | 
2 | CC(=O)N[C@H]1C(O)O[C@H](CO)[C@@H](O)[C@@H]1O (some centres unmarked) [N-acetylglucosamine, reference compound] | None of these monosaccharides, either separately or in combination, blocked Pa adhesion to ECs |  | 
3 | N#CC(=C(/N)Sc1ccccc1N)/C(C#N)=C(\N)Sc1ccccc1N [U0126] |  |  | effect on MUC1-NEU1 co-immunoprecipitation [2]: failed to alter MUC1-NEU1 co-immunoprecipitation
4 | CO/N=C(\C(=O)N[C@@H]1C(=O)N2C(C(=O)[O-])=C(C[N+]3(C)CCCC3)CS[C@H]12)c1csc(N)n1 [cefepime, reference compound] |  |  | survival over seven days [3]: ~62.5%
5 | O=C[C@H](O)[C@@H](O)[C@@H](O)[C@H](O)CO [galactose, reference compound] | None of these monosaccharides, either separately or in combination, blocked Pa adhesion to ECs |  | 
6 | MUC1-ED from E. coli transformed with pMUC1: deglycosylated form of MUC1-ED prepared by transformation of Escherichia coli with a MUC1 expression plasmid (pMUC1); SEQ ID NO:2 per b204 |  | 93% | maximum inhibition of Pa adhesion ([1]; comparison in the discussion, single repeat vs MUC1-ED containing 15 repeats): > 90%; number of Pa recovered from BALF (CFU) [4]: reduced the number of Pa recovered; number of Pa recovered from lungs (CFU) [4]: reduced the number of Pa recovered; survival over seven days [3]: ~45%
7 | MUC1-ED from GalNAc-O-bn-treated ECs: MUC1-ED from supernates of airway ECs cultured with the O-glycosylation inhibitor benzyl-N-acetyl-α-galactosaminide |  | 88% | 
8 | MUC1-ED from tunicamycin-treated ECs: MUC1-ED from supernates of airway ECs cultured with the N-glycosylation inhibitor tunicamycin |  | did not reduce Pa adhesion | 
9 | MUC1-ED: shed MUC1 ectodomain in airway EC culture supernates |  |  | MUC1-ED concentrations capable of inhibiting Pa adhesion in vitro ([1]; shed MUC1-ED in EC culture supernates (FIGS. 9A, 9B)): ≤ 0.63 μg/m1
10 | desialylated MUC1-ED from Ad-NEU1-infected ECs: MUC1-ED prepared from culture supernates of airway ECs infected with Ad-NEU1 |  | ~65% | 
